Biological target: Multidrug resistance-associated protein 1 (Homo sapiens, UniProt P33527)
Test: TP_TRANSPORTER: inhibition of apoptosis in hMRP1-expressing HEK293 cells
Format: functional, cell-based

Chain of Multidrug resistance-associated protein 1 (P33527 whole entry): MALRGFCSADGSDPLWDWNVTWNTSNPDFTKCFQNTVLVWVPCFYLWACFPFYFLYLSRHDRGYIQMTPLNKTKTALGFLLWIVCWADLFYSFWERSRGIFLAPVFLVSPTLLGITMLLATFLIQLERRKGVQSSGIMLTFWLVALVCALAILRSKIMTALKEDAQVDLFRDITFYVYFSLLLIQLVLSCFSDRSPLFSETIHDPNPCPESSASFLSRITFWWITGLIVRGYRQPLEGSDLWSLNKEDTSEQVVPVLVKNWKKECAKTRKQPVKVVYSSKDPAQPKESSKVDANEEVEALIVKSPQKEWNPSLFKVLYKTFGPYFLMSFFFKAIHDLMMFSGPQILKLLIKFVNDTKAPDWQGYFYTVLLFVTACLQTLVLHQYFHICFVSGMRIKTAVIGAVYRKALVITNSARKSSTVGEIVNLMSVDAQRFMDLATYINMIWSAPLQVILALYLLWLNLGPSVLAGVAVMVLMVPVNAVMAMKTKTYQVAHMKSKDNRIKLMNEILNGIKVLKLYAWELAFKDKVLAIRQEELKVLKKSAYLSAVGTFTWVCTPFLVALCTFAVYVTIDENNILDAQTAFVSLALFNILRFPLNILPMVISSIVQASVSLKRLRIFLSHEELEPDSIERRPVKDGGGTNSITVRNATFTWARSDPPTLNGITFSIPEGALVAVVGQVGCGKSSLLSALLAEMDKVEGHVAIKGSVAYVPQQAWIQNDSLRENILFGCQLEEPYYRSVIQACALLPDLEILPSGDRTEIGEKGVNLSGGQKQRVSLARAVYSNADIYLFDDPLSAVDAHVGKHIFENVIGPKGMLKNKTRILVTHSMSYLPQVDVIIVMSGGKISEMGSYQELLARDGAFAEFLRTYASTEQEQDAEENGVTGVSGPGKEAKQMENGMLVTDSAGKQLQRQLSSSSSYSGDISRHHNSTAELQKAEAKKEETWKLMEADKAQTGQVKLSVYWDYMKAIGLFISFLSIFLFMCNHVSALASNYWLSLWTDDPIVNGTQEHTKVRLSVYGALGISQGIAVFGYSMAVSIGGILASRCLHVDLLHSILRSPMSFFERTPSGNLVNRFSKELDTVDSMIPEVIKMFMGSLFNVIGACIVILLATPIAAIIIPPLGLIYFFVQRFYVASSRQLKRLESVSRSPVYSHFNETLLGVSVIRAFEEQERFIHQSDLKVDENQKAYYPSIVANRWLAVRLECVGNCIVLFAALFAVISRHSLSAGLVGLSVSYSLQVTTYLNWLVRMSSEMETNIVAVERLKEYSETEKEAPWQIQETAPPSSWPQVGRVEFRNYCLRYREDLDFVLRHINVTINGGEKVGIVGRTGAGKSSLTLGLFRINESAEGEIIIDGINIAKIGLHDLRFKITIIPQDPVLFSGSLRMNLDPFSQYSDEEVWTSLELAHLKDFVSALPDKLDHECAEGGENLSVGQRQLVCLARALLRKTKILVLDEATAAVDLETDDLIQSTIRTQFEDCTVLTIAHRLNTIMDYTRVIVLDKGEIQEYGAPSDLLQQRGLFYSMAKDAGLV

SMILES | Activity
CC[C@]1(O)C[C@@H]2CN(CCc3c([nH]c4ccccc34)[C@@](C(=O)OC)(c3cc4c(cc3OC)N(C)[C@H]3[C@@](O)(C(=O)OC)[C@H](OC(C)=O)[C@]5(CC)C=CCN6CC[C@]43[C@@H]65)C2)C1 [VINBLASTINE] | substrate []
O.O=P(O)(O)C(O)(Cn1ccnc1)P(=O)(O)O [ZOLEDRONIC ACID] | substrate []

Source: ChEMBL document CHEMBL2074107, “Zoledronic acid is synergic with vinblastine to induce apoptosis in a multidrug resistance protein-1 dependent way: an in vitro study” (Cell Biol Int, 2006)
